Source: patent US20090192135A1, “Human Niemann Pick C1-Like 1 Gene (NPC1L1) Polymorphisms and Methods of Use Thereof” (SCHERING CORPORATION, priority 2005, published 2009)

Target: T1, NPC1L1 (Homo sapiens, UniProt Q9UHC9)
T1 construct: from tissue; host or cells: small intestine of hypercholesterolemic patients (in vivo, clinical trial)
T1 sequence (Q9UHC9 22-1332 isoform Q9UHC9-2 limits assumed): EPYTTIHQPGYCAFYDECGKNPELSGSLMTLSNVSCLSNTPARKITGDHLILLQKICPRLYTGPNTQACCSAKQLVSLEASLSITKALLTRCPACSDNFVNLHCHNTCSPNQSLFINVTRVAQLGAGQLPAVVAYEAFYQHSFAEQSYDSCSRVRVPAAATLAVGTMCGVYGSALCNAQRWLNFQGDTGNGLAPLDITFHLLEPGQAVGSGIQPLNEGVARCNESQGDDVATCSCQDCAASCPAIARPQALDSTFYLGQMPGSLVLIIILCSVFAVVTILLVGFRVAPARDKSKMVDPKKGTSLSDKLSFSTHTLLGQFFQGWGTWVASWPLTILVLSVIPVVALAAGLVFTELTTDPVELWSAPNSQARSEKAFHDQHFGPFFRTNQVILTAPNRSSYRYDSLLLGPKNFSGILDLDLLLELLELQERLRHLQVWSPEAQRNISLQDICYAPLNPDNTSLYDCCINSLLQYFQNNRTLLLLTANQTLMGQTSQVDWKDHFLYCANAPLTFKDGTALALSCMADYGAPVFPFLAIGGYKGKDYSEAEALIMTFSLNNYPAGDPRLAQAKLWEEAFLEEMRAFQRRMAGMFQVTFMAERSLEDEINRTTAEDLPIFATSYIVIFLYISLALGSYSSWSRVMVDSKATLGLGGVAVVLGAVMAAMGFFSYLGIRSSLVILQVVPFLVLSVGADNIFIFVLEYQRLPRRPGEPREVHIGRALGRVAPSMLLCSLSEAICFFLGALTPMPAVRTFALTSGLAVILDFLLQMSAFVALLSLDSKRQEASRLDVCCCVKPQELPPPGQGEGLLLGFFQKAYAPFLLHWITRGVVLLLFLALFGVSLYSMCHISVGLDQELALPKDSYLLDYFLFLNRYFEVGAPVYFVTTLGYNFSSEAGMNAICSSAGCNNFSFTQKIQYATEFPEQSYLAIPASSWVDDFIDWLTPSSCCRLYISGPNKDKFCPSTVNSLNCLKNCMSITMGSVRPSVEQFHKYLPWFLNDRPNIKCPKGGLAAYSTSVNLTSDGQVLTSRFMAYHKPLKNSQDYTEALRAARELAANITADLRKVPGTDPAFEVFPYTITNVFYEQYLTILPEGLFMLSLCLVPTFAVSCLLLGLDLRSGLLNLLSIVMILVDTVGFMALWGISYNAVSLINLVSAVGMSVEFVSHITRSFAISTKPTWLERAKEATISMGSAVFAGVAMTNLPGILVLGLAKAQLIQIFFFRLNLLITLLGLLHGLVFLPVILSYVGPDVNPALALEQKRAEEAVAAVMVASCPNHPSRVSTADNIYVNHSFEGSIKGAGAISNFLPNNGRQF
Assay: EASE trial: LDL-C response to six weeks of ezetimibe 10 mg/day added to stable statin therapy, analysed by NPC1L1 genotype/haplotype
Type: in vivo
Settings: for Least-Squares (adjusted) Mean (n,/Stderr), percent change in LDL-C: Extreme responders N = 239; for Odds Ratio, extreme responder association with SNP: g.-18C > A; for Adjusted Least Squares Mean, LDL-C response: extreme responder data set
Protocol: Genotyping assays were developed for a number of novel and known common variants with minor allele frequencies greater than 4% that were identified in Example 1. Genetic association analysis was performed with these SNPs in a clinical trial cohort (EASE), described below, to assess whether DNA sequence variants in NPC1L1 are associated with changes in the levels of a variety of plasma cholesterol components in hypercholesterolemia patients in response to pharmacotherapy with ezetimibe and statins as compared to patients treated with a statin and placebo.
To study whether variations in NPC1L1 were associated with response to ezetimibe added to statin therapy, a study population was derived from the Ezetimibe Add-On to Statin for Effectiveness (EASE) Trial (Pearson et al., (2005) Mayo Clinic Proceedings, In Press). The EASE trial was a community-based, randomized, double-blind, placebo controlled study to evaluate the effects of six weeks of ezetimibe, 10 mg/day, added on to a stable regimen of statin therapy, on lipid biomarkers in hypercholesterolemic patients whose LDL-C levels exceeded the National Cholesterol Education Program (NCEP) Adult Treatment Panel (ATP) m guidelines for their coronary heart disease (CHD) risk category. At enrollment, patients taking a stable dose of statin (any dose, any brand) and following a NCEP Step 1 diet or similar cholesterol-lowering diet for at least six weeks prior to entry into the study were randomized to either the ezetimibe (n=2020, 2009 received the treatment) or placebo (n=1010, 1009 received the treatment) arm. From the ezetimibe group, 1208 patients provided consent for genomic analysis and were included in this study. A series of clinical measures corresponding to various cardiovascular risk factors were measured from samples obtained from all trial participants and are summarized by Pearson et al., supra.
Twenty one SNPs from Table 4 (Example 1) were converted to valid genotyping assays, thirteen of which had allele frequencies greater than 2% in all EASE sub-populations. TaqMan Allelic Discrimination assays (Livak, (1999) Genet. Anal. 14:143-49) were performed using Primer Express software and the Assay-by-Design service offered by Applied Biosystems (Foster City, Calif.). […] All probe/primer sets were designed to function using universal reaction and cycling conditions.
The twenty one selected SNPs were genotyped in 1,208 individuals participating in the ezetimibe+statin treatment arm of the EASE trial. A series of clinical measures corresponding to various cardiovascular risk factors were taken on all trial participants (Tables 4a-d). Thirteen selected SNPs genotyped in the EASE cohort were confirmed as having common allele frequencies in this cohort, i.e., an allele frequency of greater than 2% in all EASE sub-populations. […] This could reflect the increased power in the larger EASE cohort to make such detections (see Table 5).
The mean (SD) for total plasma cholesterol, HDL cholesterol (HDL-C), and LDL cholesterol (LDL-C) was 211.0 (34.9), 48.6 (11.5), and 129.1 (30.0) mg/dL, respectively (Pearson et al., supra). […] The distribution of these measurements was similar in the subjects enrolled in this genetic study (Pearson et al., supra). […] No significant associations were found between these response predictive variables and any of the tagging SNPs.
Genetic association analysis was carried out in the EASE cohort with LDL-C response to ezetimibe treatment considered as the primary outcome variable. Individual SNPs, haplotypes, and haplotype combinations were the principal explanatory variables used in the analyses. General linear models were used to estimate the effects of genotypes, haplotypes, and diplotypes on the LDL-C response phenotype. Baseline LDL-C levels, sex, age, and race were investigated to determine if they gave rise to significant effects. Baseline LDL-C levels associated with significant effects in all models and were therefore included in all analyses. […]

SMILES: O=C1[C@H](CC[C@H](O)c2ccc(F)cc2)[C@@H](c2ccc(O)cc2)N1c1ccc(F)cc1 [ezetimibe, 1-(4-fluorophenyl)-3(R)-[3-(4-fluorophenyl)-3(S)-hydroxypropyl]-4(S)-(4-hydroxyphenyl)-2-azetidinone]
- Least-Squares (adjusted) Mean (n,/Stderr), percent change in LDL-C (g.1679C > G C/C): C/C: −17.49 (143/2.71) %
- Least-Squares (adjusted) Mean (n,/Stderr), percent change in LDL-C (g.1679C > G C/G): C/G: −25.16 (85/3.51) %
- Least-Squares (adjusted) Mean (n,/Stderr), percent change in LDL-C (g.1679C > G G/G): G/G: −40.93 (11/9.76) %
- Odds Ratio, extreme responder association with SNP (baseline LDL-C as covariate table, extreme responders N = 239, CI (1.59, 5.44)): Odds Ratio = 2.94-
- Least-Squares (adjusted) Mean, percent change in LDL-C (baseline LDL-C as covariate, extreme responders N = 239, g.-18C > A C/C): C/C: −17.8%
- Least-Squares (adjusted Mean), percent change from baseline LDL-C (baseline LDL-C as covariate, g.-18C > A A/A): −26.5%
- Least-Squares (adjusted Mean), percent change from baseline LDL-C (baseline LDL-C as covariate, g.-18C > A C/A): −27.9%
- Least-Squares (adjusted Mean), percent change from baseline LDL-C (baseline LDL-C as covariate, g.-18C > A C/C): −24.2%
- Least-Squares (adjusted Mean), percent change from baseline LDL-C (baseline LDL-C as covariate, g.-133A > G A/A): −25.9%
- Least-Squares (adjusted Mean), percent change from baseline LDL-C (baseline LDL-C as covariate, g.-133A > G A/G): −24.8%
- Least-Squares (adjusted Mean), percent change from baseline LDL-C (baseline LDL-C as covariate, g.-133A > G G/G): −21.9%
- Least-Squares (adjusted Mean), percent change from baseline LDL-C (baseline LDL-C as covariate, g.1679C > G C/C): −24.5%
- Least-Squares (adjusted Mean), percent change from baseline LDL-C (baseline LDL-C as covariate, g.1679C > G C/G): −26%
- Least-Squares (adjusted Mean), percent change from baseline LDL-C (baseline LDL-C as covariate, g.1679C > G G/G): −27.9%
- Least-Squares (adjusted Mean), percent change from baseline LDL-C (baseline LDL-C as covariate, g.19224G > A A/A): −28.6%
- Least-Squares (adjusted Mean), percent change from baseline LDL-C (baseline LDL-C as covariate, g.19224G > A G/A): −25.8%
- Least-Squares (adjusted Mean), percent change from baseline LDL-C (baseline LDL-C as covariate, g.19224G > A G/G): −25%
- Least-Squares (adjusted Mean), percent change from baseline LDL-C (baseline LDL-C as covariate, g.19259T > C C/C): −26.2%
- Least-Squares (adjusted Mean), percent change from baseline LDL-C (baseline LDL-C as covariate, g.19259T > C T/C): −25.2%
- Least-Squares (adjusted Mean), percent change from baseline LDL-C (baseline LDL-C as covariate, g.19259T > C T/T): −25%
- Least-Squares (adjusted Mean), percent change from baseline LDL-C (baseline LDL-C as covariate, g.28650A > G A/A): −24.3%
- Least-Squares (adjusted Mean), percent change from baseline LDL-C (baseline LDL-C as covariate, g.28650A > G A/G): −26.6%
- Least-Squares (adjusted Mean), percent change from baseline LDL-C (baseline LDL-C as covariate, g.28650A > G G/G): −28%
- additional decrease in absolute LDL-C levels (corresponding to a 15% relative increase in LDL-C reductions): ~5 mg/dL
- Adjusted Least Squares Mean, LDL-C response (diplotype A-A-C / A-C-C): −38.20%
- Adjusted Least Squares Mean, LDL-C response (diplotype A-A-G / A-C-C): −34.80%
- Adjusted Least Squares Mean, LDL-C response (diplotype A-A-G / A-C-G): −40.29%
- Adjusted Least Squares Mean, LDL-C response (diplotype A-A-G / G-C-C): −29.06%
- Adjusted Least Squares Mean, LDL-C response (diplotype A-C-C / A-C-C): −21.78%
- Adjusted Least Squares Mean, LDL-C response (diplotype A-C-C / A-C-G): −4.60%
- Adjusted Least Squares Mean, LDL-C response (diplotype A-C-C / G-C-C): −14.60%
- Adjusted Least Squares Mean, LDL-C response (diplotype A-C-G / A-C-G): −41.46%
- Adjusted Least Squares Mean, LDL-C response (diplotype A-C-G / G-C-C): −24.20%
- Adjusted Least Squares Mean, LDL-C response (diplotype G-C-C / G-C-C): 3.93%
- Adjusted Least Squares Mean, LDL-C response (diplotype G-C-C / G-C-G): −66.96%
- Adjusted Least Squares Mean (stderr), LDL-C response (extreme responders, 3-SNP haplotype A-A-G, 0 copies (count 181)): −17.32 (2.38) %
- Adjusted Least Squares Mean (stderr), LDL-C response (extreme responders, 3-SNP haplotype A-A-G, 1 copy (count 58)): −33.69 (4.21) %
- Adjusted Least Squares Mean (stderr), LDL-C response (extreme responders, 3-SNP haplotype G-C-C, 0 copies (count 139)): −24.51 (2.75) %
- Adjusted Least Squares Mean (stderr), LDL-C response (extreme responders, 3-SNP haplotype G-C-C, 1 copy (count 92)): −18.62 (3.38) %
- Adjusted Least Squares Mean (stderr), LDL-C response (extreme responders, 3-SNP haplotype G-C-C, 2 copies (count 8)): 3.93 (11.45) %
- mean LDL-C percent response (extreme responders, g.−18C>A heterozygotes): 33.98%
- increase in efficacy / increased reduction in LDL-C (extreme responders, g.−18C>A heterozygotes vs homozygous common allele): 100%
- mean LDL-C percent response (extreme responders, homozygous for the common allele of g.−18C>A (176/239)): 16.8%
- Odds Ratio, extreme responder association with SNP (extreme responders N = 239, 95% CI 1.59, 5.44): Odds ratio** = 2.94-
- increased LDL-C response / greater reduction in LDL-C (g.−18C>A minor allele carriers compared to homozygous major allele, EASE cohort): 15%
